One assay has as its target human EBP (Homo sapiens (Human), UniProt Q15125). The experiment in a line: Competition binding assay (SPA, [3H]-Ifenprodil) to determine compound affinity to EBP. The note with it: [3H]-Ifenprodil 10 nM, HEK293 membrane overexpressing human EBP, Ki=IC50/(1+[L]/Kd); read-out: hEBP SPA Ki. As for the experimental part: Membrane preparation: To examine compound binding affinity to EBP, human EBP was overexpressed in human embryonic kidney 293 cells. Cell pellet was lysed in 10 times weight binding buffer (50 mM Tris, 5 mM MgCl2, 0.1 mM EDTA, lx protease inhibitor cocktail, pH 7.5) on ice by using a dounce homogenizer. The solution was centrifuged at 25,000 g for 50 min at 4° C. The membrane pellet was re-suspended in binding buffer and run through a 25 5/8 gauge needle. After checking the concentration by Bradford assay, the whole cell membrane solution was adjusted to 20 mg/mL and stored at −80° C.
This binding solution was centrifuged at 400 g for 5 minutes to collect the bead/membrane mixture. After re-suspending the pellet in binding buffer at the same calculated volume with 0.01% BSA (Sigma A1933), the bead/membrane mixture was added in 384-well low-binding surface plate (PerkinElmer Cat #6057480) at 25 μl/well. Radioligand at different concentrations with and without the non-radio-labeled same ligand 5 uM (for nonspecific and total signal, respectively) was added to bring final volume to 50 µl/well with DMSO concentration at 0.1%. At equilibrium (3 hours after ligand addition), radiometric signal CPM was counted by using a Microbeta2 microplate counter (Perkinelmer).
Competition binding assay to determine compound affinity: The same conditions of the radioligand Kd study were used for compound single dose percentage inhibition and equilibrium dissociation constant Ki examinations, except 50 nL compound DMSO stock was pre-added in 384-well low-binding surface plate (PerkinElmer Cat #6057480) by Echo 550 (Labcyte) to reach the final concentration for single dose test at 1 uM, and dose response test from 0.06 nM to 5 uM (8 dose, 5 times dilution). A pre-incubated bead/membrane mixture was added in compound plate at 0.3 mg beads and […] membrane per well. […] At equilibrium (3 hours after ligand addition), radiometric signal was counted as described above. The percentage inhibition of compound at each testing concentration was calculated by normalizing each condition's CPM readout to full block (5 uM non-radiolabeled ligand) and non-block (DMSO) control conditions. Compound binding inhibition IC50 was determined by nonlinear regression fitting of percentage inhibition plot against compound concentration. Compound Ki was calculated from the equation Ki=IC50/(1+[L]/Kd), which [L] was radioligand concentration used in assay. All tests had N bigger or equal to 2.

Assay [1] concerns EBP (zymostenol accumulation in EpiSC-derived OPCs). The experiment in a line: GC/MS-based sterol profiling, zymostenol accumulation in OPCs. The class given is cell-based, mouse. To be noted: Mus musculus, 24 h, EpiSC-derived OPCs, 24 hr treatment, 8 doses from 0.15 nM to 333 nM; read-out: Zymostenol GCMS EC50. The essentials:
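EpiSC-derived OPCs (100,000/well) were treated 24 h in N2B27 without growth factors. Sterols were TMS-derivatized and analysed by GC/MS full-scan EI, quantified against cholesterol-d7. Zymostenol was normalized to the level after 24 h with 100 nM positive control reference.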

Each structure is given as a SMILES string. pEC50, pKi: −log10 of the molar value.

Chain of human EBP (Q15125 whole entry): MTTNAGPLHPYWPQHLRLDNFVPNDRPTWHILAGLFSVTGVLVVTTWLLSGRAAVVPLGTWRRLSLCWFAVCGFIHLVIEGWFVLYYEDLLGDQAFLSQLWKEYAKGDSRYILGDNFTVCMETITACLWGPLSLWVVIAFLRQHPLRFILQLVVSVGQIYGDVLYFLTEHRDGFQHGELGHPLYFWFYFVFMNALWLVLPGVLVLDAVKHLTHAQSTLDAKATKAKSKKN

As to `O=S1(=O)CC2(CCN([C@H]3CC[C@@H](c4ccc(C(F)(F)F)nc4)C3)C2)C1` (single isomer, unassigned) [Compound 11A, (Cis)-6-(3-(6-(Trifluoromethyl)pyridin-3-yl)cyclopentyl)-2-thia-6-azaspiro[3.4]octane 2,2-dioxide], the negative logarithm of the Ki (pKi) on human EBP was 7.27. Moreover, the pEC50 in assay [1] is 7.52.
The matching figures for `O=S1(=O)CC2(CCN([C@@H]3CC[C@@H](c4ccc(C(F)(F)F)nc4)C3)C2)C1` (single isomer, unassigned) [Compound 11B, (Trans)-6-(3-(6-(Trifluoromethyl)pyridin-3-yl)cyclopentyl)-2-thia-6-azaspiro[3.4]octane 2,2-dioxide]: 7.38 and 8.14.
Taken in the same sequence, the figures for `O=S1(=O)CC2(CCN([C@H]3CO[C@@H](c4ccc(C(F)(F)F)cc4)C3)C2)C1` (stereo in doubt) [19A*, 6-((3R,5R)-5-(4-(Trifluoromethyl)phenyl)tetrahydrofuran-3-yl)-2-thia-6-azaspiro[3.4]octane 2,2-dioxide] were 7.57 and 7.64.
As for `O=S1(=O)CC2(CCN([C@@H]3CO[C@@H](c4ccc(C(F)(F)F)cc4)C3)C2)C1` (stereo in doubt) [19B*, 6-((3S,5R)-5-(4-(trifluoromethyl)phenyl)tetrahydrofuran-3-yl)-2-thia-6-azaspiro[3.4]octane 2,2-dioxide], on human EBP, the pKi is 7.57. For the same compound, the pEC50 in assay [1] is 8.00.
Taken in the same sequence, the figures for `O=S1(=O)CC2(CCN([C@@H]3CO[C@H](c4ccc(C(F)(F)F)cc4)C3)C2)C1` (stereo in doubt) [19C*, 6-((3S,5S)-5-(4-(Trifluoromethyl)phenyl)tetrahydrofuran-3-yl)-2-thia-6-azaspiro[3.4]octane 2,2-dioxide] were 7.47 and 6.96.
The matching figures for `O=S1(=O)CC2(CCN([C@H]3CO[C@H](c4ccc(C(F)(F)F)cc4)C3)C2)C1` (stereo in doubt) [19D*, 6-((3R,5S)-5-(4-(trifluoromethyl)phenyl)tetrahydrofuran-3-yl)-2-thia-6-azaspiro[3.4]octane 2,2-dioxide]: 7.49 and 6.96.
For `CCn1nc(-c2ccc(C(F)(F)F)nc2)nc1[C@H]1CC[C@H](N2CCC3(C2)CS(=O)(=O)C3)CC1` [36A*, 6-((1r,4r)-4-(1-Ethyl-3-(6-(trifluoromethyl)pyridin-3-yl)-1H-1,2,4-triazol-5-yl)cyclohexyl)-2-thia-6-azaspiro[3.4]octane 2,2-dioxide], the pKi on human EBP was 7.40. The pEC50 in assay [1] is 8.07.
With `CCn1nc(-c2ccc(C(F)(F)F)nc2)nc1[C@H]1CC[C@@H](N2CCC3(C2)CS(=O)(=O)C3)CC1` [36B*, 6-((1s,4s)-4-(1-ethyl-3-(6-(trifluoromethyl)pyridin-3-yl)-1H-1,2,4-triazol-5-yl)cyclohexyl)-2-thia-6-azaspiro[3.4]octane 2,2-dioxide], the pKi at human EBP is 7.24. The negative-log EC50 (pEC50) in assay [1] was 7.64.
For the compound `O=S1(=O)CC2(CCN([C@@H]3CC[C@@H](c4ccc(C(F)(F)F)cc4)C3)C2)C1` [Compound 1B, 6-((1R,3R)-3-(4-(trifluoromethyl)phenyl)cyclopentyl)-2-thia-6-azaspiro[3.4]octane 2,2-dioxide], the negative logarithm of the Ki (pKi) at human EBP is 7.00. The pEC50 in assay [1] was 8.59.
As to `Cn1nc(C(F)(F)F)cc1[C@H]1CC[C@@H](N2CCC3(C2)CS(=O)(=O)C3)CC1` [Compound 2A, 6-((1s,4s)-4-(1-methyl-3-(trifluoromethyl)-1H-pyrazol-5-yl)cyclohexyl)-2-thia-6-azaspiro[3.4]octane 2,2-dioxide], at human EBP, the negative logarithm of the Ki (pKi) was 7.70. The negative logarithm of the EC50 (pEC50) in assay [1] is 7.25.
The matching figures for `Cn1nc(C(F)(F)F)cc1[C@H]1CC[C@H](N2CCC3(C2)CS(=O)(=O)C3)CC1` [Compound 2B, 6-((1r,4r)-4-(1-methyl-3-(trifluoromethyl)-1H-pyrazol-5-yl)cyclohexyl)-2-thia-6-azaspiro[3.4]octane 2,2-dioxide]: 7.70 and 7.92.

Usually pKi stands for the Ki on a negative log10 scale, so that one unit is a factor of ten. A word on the pEC50: it is −log10 of the EC50, conventionally taken in molar units.

These data come from US20240398781A1, “SPIROCYCLIC CYCLIC MODULATORS OF CHOLESTEROL BIOSYNTHESIS AND THEIR USE FOR PROMOTING REMYELINATION” (GENENTECH, INC., priority 2021, published 2024).
